Experimental findings from patent publication US20180338980A1, “AROMATIC SULFONAMIDE DERIVATIVES” (BAYER PHARMA AKTIENGESELLSCHAFT, priority 2015, published 2018) are described below.

The structures appear in SMILES notation.

Assay [1] deals with T1, P2X4 (Homo sapiens, UniProt Q99571).
T1 sequence (Q99571 1-388): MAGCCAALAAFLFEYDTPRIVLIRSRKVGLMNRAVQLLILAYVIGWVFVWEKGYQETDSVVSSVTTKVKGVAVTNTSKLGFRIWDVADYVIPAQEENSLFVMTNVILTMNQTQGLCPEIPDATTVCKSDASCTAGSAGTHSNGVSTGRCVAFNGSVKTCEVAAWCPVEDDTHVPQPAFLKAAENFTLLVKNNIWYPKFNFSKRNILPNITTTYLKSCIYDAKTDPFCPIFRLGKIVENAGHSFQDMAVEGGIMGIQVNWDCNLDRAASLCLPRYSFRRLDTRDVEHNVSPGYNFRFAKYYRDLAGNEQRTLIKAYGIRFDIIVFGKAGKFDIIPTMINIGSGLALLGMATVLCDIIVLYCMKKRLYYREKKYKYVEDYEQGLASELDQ
Nature of the assay: Assay A: human P2X4 receptor cell line, FLIPR calcium assay (Fluo-8, agonist Bz-ATP at EC80). It is filed as cell-based. Further details: host or cells: HEK 293 (recombinant, constitutively expressing; with mitochondrial photina in Assay B). As to conditions: for IC50: Bz-ATP at EC80, average values; for Emax: read-out: human P2X4 Assay A avg Efficacy. How it is done: A fluorescent imaging plate reader (FLEX/FLIPR station; Molecular Devices) was used to monitor intracellular calcium levels using the calcium-chelating dye Fluo-8 (Molecular Probes). […] Cells expressing purinergic receptors human P2X4 (HEK human P2X4: PerkinElmer, Product No.: AX-015-PCF) were plated at a density of 20,000 cells/well in poly-D-lysine-coated 384-well plates approximately 20 hours before beginning the assay. On the day of the assay, the medium was removed and 30 μl of dye buffer (Hank's balanced salt solution, 10 mM HEPES, 1.8 mM CaCl2), 1 mM MgCl2, 2 mM probenecid, 5 mM D-glucose monohydrate, 5 μM Fluo-8, pH=7.4) was added for 30 min at […] and 5% CO2. The antagonist in probenecid buffer (Hank's balanced salt solution, 10 mM HEPES, 1.8 mM CaCl2, 1 mM MgCl2, 2 mM probenecid, 5 mM D-glucose monohydrate, pH=7.4) was added in a volume of 10 μl and allowed to incubate for 30 min at room temperature. The final assay DMSO concentration is 0.5%. The agonist, Bz-ATP, is added in a volume of 10 μl at a concentration representing the EC80 value. The fluorescence was measured for an interval of 120 sec at 2 sec intervals and analyzed based on the increase in peak relative fluorescence units (RFU) compared to the basal fluorescence. Peak fluorescence was used to determine the response to agonist obtained at each concentration of antagonist by the following equation:
% Response=100*(RFU(drug)−RFU(control))/(RFU(DMSO)−RFU(control))
The compounds were tested in triplicates per plate and mean values were plotted in Excel XLFit to determine IC50 values, percentage of maximal inhibition and the Hill coefficients.

Assay [2] addresses T1, P2X4. Nature of the assay: Assay B: human P2X4 receptor cell line, mitochondrial photina luminescence (agonist Bz-ATP at EC50). It is filed as cell-based. Further details: host or cells: HEK 293 (recombinant, constitutively expressing; with mitochondrial photina in Assay B). As to conditions: for Emax: read-out: human P2X4 Assay B avg Efficacy. In a few lines:
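Bz-ATP at its EC50 activates human P2X4 stably expressed in a cell line that also carries the calcium-sensitive photoprotein mitochondrial photina (coelenterazine cofactor). Light emitted on calcium influx is measured straight away in a luminometer. Reduced luminescence indicates antagonism.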

[3] abbreviates: HEK human P2X4 cells, Fluo-8 FLIPR.
[4] abbreviates: percentage of maximal inhibition, HEK human P2X4 cells, Fluo-8 FLIPR.
[5] abbreviates: HEK human P2X4 cell line, photina luminescence, agonist Bz-ATP at EC50, average.

`NS(=O)(=O)c1cc(NC(=O)Cc2c(Cl)ccc(Br)c2Cl)ccc1Oc1cccc(Cl)c1` [Example 131, 2-(3-bromo-2,6-dichlorophenyl)-N-[4-(3-chlorophenoxy)-3-sulfamoylphenyl]acetamide]: the figures for the concentration for half-maximal inhibition (IC50) at P2X4 [1] (setting [3]) and at P2X4 [2] (setting [5]) were 284 nM and 2400 nM, respectively. Moreover, the Emax was 77% at P2X4 [1] (setting [4]) and 86% on P2X4 [2] (setting [5]).
Taken in the same sequence, the figures for `CC(=O)c1cccc(Oc2ccc(NC(=O)Cc3ccccc3Cl)cc2S(N)(=O)=O)c1` [Example 007, N-[4-(3-Acetylphenoxy)-3-sulfamoylphenyl]-2-(2-chlorophenyl)acetamide] were 16 nM, 122 nM, 93% and 104%.
Taken in the same sequence, the figures for `NS(=O)(=O)c1cc(NC(=O)Cc2ccccc2Cl)ccc1Oc1ccc(N2CCOC2=O)cc1` [Example 063, 2-(2-chlorophenyl)-N-{4-[4-(2-oxo-1,3-oxazolidin-3-yl)phenoxy]-3-sulfamoylphenyl}acetamide] were 90 nM, 221 nM, 82% and 70%.
As to `NS(=O)(=O)c1cc(NC(=O)Cc2ccc(F)cc2)ccc1Oc1cccc(Cl)c1` [Example 085, N-[4-(3-Chlorophenoxy)-3-sulfamoylphenyl]-2-(4-fluorophenyl)acetamide], the figures for the Emax at P2X4 [1] (setting [4]) and on P2X4 [2] (setting [5]) were 86% and 59%, respectively.
Take `Cc1ccc(Cl)c(CC(=O)Nc2ccc(Oc3cccc(Cl)c3)c(S(N)(=O)=O)c2)c1Cl` [Example 128, N-[4-(3-Chlorophenoxy)-3-sulfamoylphenyl]-2-(2,6-dichloro-3-methylphenyl)acetamide]: the figures for the IC50 at P2X4 [1] (setting [3]) and on P2X4 [2] (setting [5]) were 184 nM and 380 nM, respectively. Also, the Emax on P2X4 [1] (setting [4]) was determined as 77%; on P2X4 [2] (setting [5]), 60%.
Taken in the same sequence, the figures for `NS(=O)(=O)c1cc(NC(=O)Cc2ccccc2Cl)ccc1Oc1ccc(N2CCCCC2=O)cc1` [Example 175, 2-(2-Chlorophenyl)-N-{4-[4-(2-oxopiperidin-1-yl)phenoxy]-3-sulfamoylphenyl}acetamide] were 1300 nM, 15000 nM, 52% and 67%.
Taken in the same sequence, the figures for `NS(=O)(=O)c1cc(NC(=O)Cc2ccccc2Cl)ccc1OCc1ccncc1` [Example 151, 2-(2-Chlorophenyl)-N-[4-(pyridin-4-ylmethoxy)-3-sulfamoylphenyl]acetamide] were 143 nM, 69 nM, 88% and 97%.
Turning to `Cc1ccc(CC(=O)Nc2ccc(Oc3cccc(Cl)c3)c(S(N)(=O)=O)c2)cc1` [Example 179, N-[4-(3-Chlorophenoxy)-3-sulfamoylphenyl]-2-(4-methylphenyl)acetamide], the Emax turned out to be 69% on P2X4 [1] (setting [4]) and 65% on P2X4 [2] (setting [5]).
As for `NS(=O)(=O)c1cc(NC(=O)Cc2ccccc2C(F)F)ccc1Oc1cccc(Cl)c1` [Example 089, N-[4-(3-Chlorophenoxy)-3-sulfamoylphenyl]-2-[2-(difluoromethyl)phenyl]acetamide], the IC50 on P2X4 [1] (setting [3]) is 102 nM; at P2X4 [2] (setting [5]) it was 145 nM. Further, the figures for the Emax at P2X4 [1] (setting [4]) and at P2X4 [2] (setting [5]) were 85% and 66%, respectively.
Taken in the same sequence, the figures for `NS(=O)(=O)c1cc(NC(=O)Cc2ccccc2Cl)ccc1OCC1(F)CCOCC1` [Example 054, 2-(2-chlorophenyl)-N-{4-[(4-fluorotetrahydro-2H-pyran-4-yl)methoxy]-3-sulfamoylphenyl}acetamide] were 68 nM, 578 nM, 94% and 84%.
Taken in the same sequence, the figures for `Cc1ccc(F)c(CC(=O)Nc2ccc(Oc3cccc(Cl)c3)c(S(N)(=O)=O)c2)c1Cl` [Example 120, 2-(2-Chloro-6-fluoro-3-methylphenyl)-N-[4-(3-chlorophenoxy)-3-sulfamoylphenyl]acetamide] were 65 nM, 194 nM, 83% and 78%.
Taken in the same sequence, the figures for `CC1(COc2ccc(NC(=O)Cc3ccccc3Cl)cc2S(N)(=O)=O)CCOCC1` [Example 053, 2-(2-Chlorophenyl)-N-{4-[(4-methyltetrahydro-2H-pyran-4-yl)methoxy]-3-sulfamoylphenyl}acetamide] were 197 nM, 859 nM, 90% and 84%.
With `NS(=O)(=O)c1cc(NC(=O)Cc2cccc(Cl)c2Cl)ccc1Oc1cccc(Cl)c1` [Example 103, N-[4-(3-Chlorophenoxy)-3-sulfamoylphenyl]-2-(2,3-dichlorophenyl)acetamide], the results for the IC50 on P2X4 [1] (setting [3]) and at P2X4 [2] (setting [5]) were 208 nM and 141 nM, respectively. In addition, the Emax at P2X4 [1] (setting [4]) worked out at 78%; at P2X4 [2] (setting [5]) it was 70%.
As to `NS(=O)(=O)c1cc(NC(=O)Cc2ccccc2)ccc1Oc1ccc(Cl)cc1` [Example 077, N-[4-(4-Chlorophenoxy)-3-sulfamoylphenyl]-2-phenylacetamide], the IC50 stood at 8340 nM at P2X4 [1] (setting [3]) and 201 nM at P2X4 [2] (setting [5]). Besides, the Emax at P2X4 [1] (setting [4]) turned out to be 54%; at P2X4 [2] (setting [5]) it was 53%.
Taken in the same sequence, the figures for `NS(=O)(=O)c1cc(NC(=O)Cc2ccccc2Cl)ccc1OCc1ccccc1Cl` [Example 144, N-{4-[(2-Chlorobenzyl)oxy]-3-sulfamoylphenyl}-2-(2-chlorophenyl)acetamide] were 86 nM, 129 nM, 93% and 76%.
Taken in the same sequence, the figures for `NS(=O)(=O)c1cc(NC(=O)Cc2ccccc2Br)ccc1Oc1cccc(Cl)c1` [Example 091, 2-(2-Bromophenyl)-N-[4-(3-chlorophenoxy)-3-sulfamoylphenyl]acetamide] were 27 nM, 53 nM, 75% and 58%.
Consider `Cn1cc(Oc2ccc(NC(=O)Cc3ccccc3Cl)cc2S(N)(=O)=O)cn1` [Example 233, 2-(2-Chlorophenyl)-N-{4-[(1-methyl-1H-pyrazol-4-yl)oxy]-3-sulfamoylphenyl}acetamide], for which the Emax at P2X4 [1] (setting [4]) was 70%; on P2X4 [2] (setting [5]), 79%.
With `CC(C)c1cccc(Oc2ccc(NC(=O)Cc3ccccc3Cl)cc2S(N)(=O)=O)c1` [Example 004, 2-(2-Chlorophenyl)-N-[4-(3-isopropylphenoxy)-3-sulfamoylphenyl]acetamide], the IC50 is 149 nM at P2X4 [1] (setting [3]) and 95 nM on P2X4 [2] (setting [5]). The values for the Emax on P2X4 [1] (setting [4]) and at P2X4 [2] (setting [5]) were 90% and 68%, respectively.
On to `NS(=O)(=O)c1cc(NC(=O)Cc2ccccc2F)ccc1OCC1CCOCC1` [Example 279, 2-(2-Fluorophenyl)-N-[3-sulfamoyl-4-(tetrahydro-2H-pyran-4-ylmethoxy)phenyl]acetamide], for which the Emax at P2X4 [1] came out at 61%; on P2X4 [2], 85%.
Consider `NS(=O)(=O)c1cc(NC(=O)Cc2cc(Br)ccc2Cl)ccc1Oc1cccc(Cl)c1` [Example 117, 2-(5-Bromo-2-chlorophenyl)-N-[4-(3-chlorophenoxy)-3-sulfamoylphenyl]acetamide], for which the IC50 was determined as 43 nM on P2X4 [1] (setting [3]) and 468 nM at P2X4 [2] (setting [5]). Besides, the Emax on P2X4 [1] (setting [4]) amounted to 94%; at P2X4 [2] (setting [5]), 61%.
Taken in the same sequence, the figures for `NS(=O)(=O)c1cc(NC(=O)Cc2ccccc2Cl)ccc1Oc1ccccc1F` [Example 010, 2-(2-Chlorophenyl)-N-[4-(2-fluorophenoxy)-3-sulfamoylphenyl]acetamide] were 27 nM, 73 nM, 90% and 76%.

One may read the IC50 as the point on the concentration scale where inhibition reaches its midpoint.
